Test system: LpxC enzyme
Test: LpxC enzyme assay (RapidFire high-throughput mass spectrometry)
Format: biochemical
Experimental: The standard LpxC assay consists of 0.2 nM LpxC enzyme, 1.0 μM UDP-3-O—(R-3-hydroxymyristoyl)-N-acetylglucosamine, and test compound, in assay buffer and 2% DMSO. Assay buffer is comprised of 25 mM HEPES, pH 7.3, 150 mM NaCl, 2.0 mM DTT, and 0.01% BSA. The enzyme reaction is carried out in a 96-well assay plate, in a final volume of 102 μL. Solutions of test compounds are prepared in 100% DMSO. Reaction additions, in order, are (1) 2.0 μL compound solution, (2) 80 μL of assay buffer, (3) 10 μL of 10 μM UDP-3-O—(R-3-hydroxymyristoyl)-N-acetylglucosamine (in assay buffer) and, (4) 10 μL of LpxC enzyme (20 nM in assay buffer) to initiate the reaction. In positive control reactions, addition (1) has 2.0 μL of 100% DMSO (without compound); these reactions are used as the total signal (TSB) value. Reactions are incubated at room temperature for 60 minutes when 10 μL of 1 N HCl is added to stop the reaction. The plate is shaken by hand for 10 seconds to ensure complete quenching. Assay plates are sealed with foil tape, and stored at −80° C. for 24-48 hr prior to analysis.
The concentrations of substrate and product in the reaction mixtures are determined with BioTrove's proprietary RapidFire™ high-throughput mass spectrometry (HTMS). Assay mixtures are partially purified with reverse phase chromatography, where they are washed with water containing 5 mM ammonium formate and eluted onto the mass spectrometer in 80% acetonitrile, 20% water, and 5 mM ammonium formate. The mass spectrometry peak areas of the substrate and product are measured to determine the concentration of these analytes. The assay signal is the percentage of substrate that is converted to product. Percent inhibition, % I, in test samples is determined from the following equation: […]

[1] = concentration 0.10 (unit not given)
[2] = concentration 0.20 (unit not given)
[3] = concentration 0.39 (unit not given)
[4] = concentration 0.78 (unit not given)
[5] = concentration 1.56 (unit not given)
[6] = concentration 3.13 (unit not given)
[7] = concentration 6.25 (unit not given)
[8] = concentration 12.50 (unit not given)
[9] = concentration 25 (unit not given)
[10] = concentration 50 (unit not given)

Structure (SMILES): CNC(=O)[C@H](O)[C@@H](O)C(=O)N1CCC(c2ccc(C(F)(F)F)cc2)CC1 [Compound 35]
- LpxC enzyme assay rating (% inhibition at indicated concentrations) [1]: C (less than 10% inhibition)
- LpxC enzyme assay rating (% inhibition at indicated concentrations) [2]: C (less than 10% inhibition)
- LpxC enzyme assay rating (% inhibition at indicated concentrations) [3]: C (less than 10% inhibition)
- LpxC enzyme assay rating (% inhibition at indicated concentrations) [4]: C (less than 10% inhibition)
- LpxC enzyme assay rating (% inhibition at indicated concentrations) [5]: B (10-30% inhibition)
- LpxC enzyme assay rating (% inhibition at indicated concentrations) [6]: C (less than 10% inhibition)
- LpxC enzyme assay rating (% inhibition at indicated concentrations) [7]: C (less than 10% inhibition)
- LpxC enzyme assay rating (% inhibition at indicated concentrations) [8]: C (less than 10% inhibition)
- LpxC enzyme assay rating (% inhibition at indicated concentrations) [9]: C (less than 10% inhibition)
- LpxC enzyme assay rating (% inhibition at indicated concentrations) [10]: B (10-30% inhibition)

Structure (SMILES): CNC(=O)[C@H](O)[C@@H](O)C(=O)N1CCC(c2ccc3ccccc3c2)CC1 [Compound 36]
- LpxC enzyme assay rating (% inhibition at indicated concentrations) [1]: C (less than 10% inhibition)
- LpxC enzyme assay rating (% inhibition at indicated concentrations) [2]: C (less than 10% inhibition)
- LpxC enzyme assay rating (% inhibition at indicated concentrations) [3]: C (less than 10% inhibition)
- LpxC enzyme assay rating (% inhibition at indicated concentrations) [4]: C (less than 10% inhibition)
- LpxC enzyme assay rating (% inhibition at indicated concentrations) [5]: C (less than 10% inhibition)
- LpxC enzyme assay rating (% inhibition at indicated concentrations) [6]: C (less than 10% inhibition)
- LpxC enzyme assay rating (% inhibition at indicated concentrations) [7]: C (less than 10% inhibition)
- LpxC enzyme assay rating (% inhibition at indicated concentrations) [8]: C (less than 10% inhibition)
- LpxC enzyme assay rating (% inhibition at indicated concentrations) [9]: C (less than 10% inhibition)
- LpxC enzyme assay rating (% inhibition at indicated concentrations) [10]: C (less than 10% inhibition)

Structure (SMILES): CNC(=O)[C@H](O)[C@@H](O)C(=O)N1CCN(c2ccc(-c3ncccn3)cc2)CC1 [Compound 37]
- LpxC enzyme assay rating (% inhibition at indicated concentrations) [1]: C (less than 10% inhibition)
- LpxC enzyme assay rating (% inhibition at indicated concentrations) [2]: C (less than 10% inhibition)
- LpxC enzyme assay rating (% inhibition at indicated concentrations) [3]: C (less than 10% inhibition)
- LpxC enzyme assay rating (% inhibition at indicated concentrations) [4]: C (less than 10% inhibition)
- LpxC enzyme assay rating (% inhibition at indicated concentrations) [5]: C (less than 10% inhibition)
- LpxC enzyme assay rating (% inhibition at indicated concentrations) [6]: C (less than 10% inhibition)
- LpxC enzyme assay rating (% inhibition at indicated concentrations) [7]: B (10-30% inhibition)
- LpxC enzyme assay rating (% inhibition at indicated concentrations) [8]: C (less than 10% inhibition)
- LpxC enzyme assay rating (% inhibition at indicated concentrations) [9]: B (10-30% inhibition)
- LpxC enzyme assay rating (% inhibition at indicated concentrations) [10]: C (less than 10% inhibition)

Structure (SMILES): CNC(=O)[C@H](O)[C@@H](O)C(=O)Nc1ccc(N2CCN(C)CC2)cc1 [Compound 38]
- LpxC enzyme assay rating (% inhibition at indicated concentrations) [1]: C (less than 10% inhibition)
- LpxC enzyme assay rating (% inhibition at indicated concentrations) [2]: C (less than 10% inhibition)
- LpxC enzyme assay rating (% inhibition at indicated concentrations) [3]: C (less than 10% inhibition)
- LpxC enzyme assay rating (% inhibition at indicated concentrations) [4]: C (less than 10% inhibition)
- LpxC enzyme assay rating (% inhibition at indicated concentrations) [5]: C (less than 10% inhibition)
- LpxC enzyme assay rating (% inhibition at indicated concentrations) [6]: C (less than 10% inhibition)
- LpxC enzyme assay rating (% inhibition at indicated concentrations) [7]: C (less than 10% inhibition)
- LpxC enzyme assay rating (% inhibition at indicated concentrations) [8]: C (less than 10% inhibition)
- LpxC enzyme assay rating (% inhibition at indicated concentrations) [9]: C (less than 10% inhibition)
- LpxC enzyme assay rating (% inhibition at indicated concentrations) [10]: B (10-30% inhibition)

Structure (SMILES): CNC(=O)[C@H](O)[C@@H](O)C(=O)Nc1ccc(OCCN(C)C)cc1 [Compound 39]
- LpxC enzyme assay rating (% inhibition at indicated concentrations) [1]: C (less than 10% inhibition)
- LpxC enzyme assay rating (% inhibition at indicated concentrations) [2]: C (less than 10% inhibition)
- LpxC enzyme assay rating (% inhibition at indicated concentrations) [3]: C (less than 10% inhibition)
- LpxC enzyme assay rating (% inhibition at indicated concentrations) [4]: B (10-30% inhibition)
- LpxC enzyme assay rating (% inhibition at indicated concentrations) [5]: C (less than 10% inhibition)
- LpxC enzyme assay rating (% inhibition at indicated concentrations) [6]: B (10-30% inhibition)
- LpxC enzyme assay rating (% inhibition at indicated concentrations) [7]: B (10-30% inhibition)
- LpxC enzyme assay rating (% inhibition at indicated concentrations) [8]: C (less than 10% inhibition)
- LpxC enzyme assay rating (% inhibition at indicated concentrations) [9]: C (less than 10% inhibition)
- LpxC enzyme assay rating (% inhibition at indicated concentrations) [10]: B (10-30% inhibition)

Structure (SMILES): CNC(=O)[C@H](O)[C@@H](O)C(=O)Nc1ccc(OCCCN(C)C)cc1 [Compound 40]
- LpxC enzyme assay rating (% inhibition at indicated concentrations) [1]: C (less than 10% inhibition)
- LpxC enzyme assay rating (% inhibition at indicated concentrations) [2]: C (less than 10% inhibition)
- LpxC enzyme assay rating (% inhibition at indicated concentrations) [3]: C (less than 10% inhibition)
- LpxC enzyme assay rating (% inhibition at indicated concentrations) [4]: B (10-30% inhibition)
- LpxC enzyme assay rating (% inhibition at indicated concentrations) [5]: C (less than 10% inhibition)
- LpxC enzyme assay rating (% inhibition at indicated concentrations) [6]: C (less than 10% inhibition)
- LpxC enzyme assay rating (% inhibition at indicated concentrations) [7]: C (less than 10% inhibition)
- LpxC enzyme assay rating (% inhibition at indicated concentrations) [8]: B (10-30% inhibition)
- LpxC enzyme assay rating (% inhibition at indicated concentrations) [9]: B (10-30% inhibition)
- LpxC enzyme assay rating (% inhibition at indicated concentrations) [10]: C (less than 10% inhibition)

Structure (SMILES): CNC(=O)[C@H](O)[C@@H](O)C(=O)Nc1ccc(-n2cccn2)cc1 [Compound 41]
- LpxC enzyme assay rating (% inhibition at indicated concentrations) [1]: C (less than 10% inhibition)
- LpxC enzyme assay rating (% inhibition at indicated concentrations) [2]: C (less than 10% inhibition)
- LpxC enzyme assay rating (% inhibition at indicated concentrations) [3]: C (less than 10% inhibition)
- LpxC enzyme assay rating (% inhibition at indicated concentrations) [4]: C (less than 10% inhibition)
- LpxC enzyme assay rating (% inhibition at indicated concentrations) [5]: B (10-30% inhibition)
- LpxC enzyme assay rating (% inhibition at indicated concentrations) [6]: B (10-30% inhibition)
- LpxC enzyme assay rating (% inhibition at indicated concentrations) [7]: B (10-30% inhibition)
- LpxC enzyme assay rating (% inhibition at indicated concentrations) [8]: C (less than 10% inhibition)
- LpxC enzyme assay rating (% inhibition at indicated concentrations) [9]: B (10-30% inhibition)
- LpxC enzyme assay rating (% inhibition at indicated concentrations) [10]: B (10-30% inhibition)

Structure (SMILES): CNC(=O)[C@H](O)[C@@H](O)C(=O)Nc1ccc(-c2cc[nH]n2)cc1 [Compound 42]
- LpxC enzyme assay rating (% inhibition at indicated concentrations) [1]: C (less than 10% inhibition)
- LpxC enzyme assay rating (% inhibition at indicated concentrations) [2]: C (less than 10% inhibition)
- LpxC enzyme assay rating (% inhibition at indicated concentrations) [3]: B (10-30% inhibition)
- LpxC enzyme assay rating (% inhibition at indicated concentrations) [4]: B (10-30% inhibition)
- LpxC enzyme assay rating (% inhibition at indicated concentrations) [5]: B (10-30% inhibition)
- LpxC enzyme assay rating (% inhibition at indicated concentrations) [6]: C (less than 10% inhibition)
- LpxC enzyme assay rating (% inhibition at indicated concentrations) [7]: B (10-30% inhibition)
- LpxC enzyme assay rating (% inhibition at indicated concentrations) [8]: B (10-30% inhibition)
- LpxC enzyme assay rating (% inhibition at indicated concentrations) [9]: B (10-30% inhibition)
- LpxC enzyme assay rating (% inhibition at indicated concentrations) [10]: C (less than 10% inhibition)

Structure (SMILES): CN(C)C(=O)[C@H](O)[C@@H](O)C(=O)Nc1ccc(C#Cc2ccccc2)cc1 [Compound 43]
- LpxC enzyme assay rating (% inhibition at indicated concentrations) [1]: C (less than 10% inhibition)
- LpxC enzyme assay rating (% inhibition at indicated concentrations) [2]: B (10-30% inhibition)
- LpxC enzyme assay rating (% inhibition at indicated concentrations) [3]: C (less than 10% inhibition)
- LpxC enzyme assay rating (% inhibition at indicated concentrations) [4]: C (less than 10% inhibition)
- LpxC enzyme assay rating (% inhibition at indicated concentrations) [5]: B (10-30% inhibition)
- LpxC enzyme assay rating (% inhibition at indicated concentrations) [6]: B (10-30% inhibition)
- LpxC enzyme assay rating (% inhibition at indicated concentrations) [7]: B (10-30% inhibition)
- LpxC enzyme assay rating (% inhibition at indicated concentrations) [8]: A (greater than 30% inhibition)
- LpxC enzyme assay rating (% inhibition at indicated concentrations) [9]: A (greater than 30% inhibition)
- LpxC enzyme assay rating (% inhibition at indicated concentrations) [10]: A (greater than 30% inhibition)

Structure (SMILES): CN(C)C(=O)[C@H](O)[C@@H](O)C(=O)n1ccc2cc(C#Cc3ccccc3)ccc21 [Compound 44]
- LpxC enzyme assay rating (% inhibition at indicated concentrations) [1]: C (less than 10% inhibition)
- LpxC enzyme assay rating (% inhibition at indicated concentrations) [2]: B (10-30% inhibition)
- LpxC enzyme assay rating (% inhibition at indicated concentrations) [3]: C (less than 10% inhibition)
- LpxC enzyme assay rating (% inhibition at indicated concentrations) [4]: C (less than 10% inhibition)
- LpxC enzyme assay rating (% inhibition at indicated concentrations) [5]: C (less than 10% inhibition)
- LpxC enzyme assay rating (% inhibition at indicated concentrations) [6]: B (10-30% inhibition)
- LpxC enzyme assay rating (% inhibition at indicated concentrations) [7]: B (10-30% inhibition)
- LpxC enzyme assay rating (% inhibition at indicated concentrations) [8]: A (greater than 30% inhibition)
- LpxC enzyme assay rating (% inhibition at indicated concentrations) [9]: A (greater than 30% inhibition)
- LpxC enzyme assay rating (% inhibition at indicated concentrations) [10]: A (greater than 30% inhibition)

— patent US7553864B2, “Compounds for the treatment of inflammatory disorders and microbial diseases” (Schering Corporation, priority 2005, dated 2009)
